Data taken from patent US8058281B2, “Use of adenine-derived compounds for the treatment of lupus” (Centre National de la Recherche Scientifique (CNRS), priority 2006, dated 2011).
Several values for one entry are separate records, joined by “and”; a condition that tells them apart may be missing. Equal entries are not always repeated. Where two headings read alike, the source gives them in different places.

What was measured:
MRL/lpr mice [1] = assay: Proteinuria in MRL/lpr lupus mice; format: in vivo, mouse
Experimental: FIG. 1: Effect of compound NCS 613 and denbufylline on proteinuria in MRL/lpr mice. Up to the age of 13 weeks, the mice received 4 administrations either of 30 μg of compound NCS 613 or of 100 μg of denbufylline.
(§1) Pre-autoimmune female MRL/lpr mice aged 5 weeks received by intravenous route, either buffered saline (PBS; control group, 100 μl per mouse), or compound NCS 613, (30 μg/100 μl per mouse, diluted in saline solution containing 10% ethanol), or denbufylline (100 μg/100 μl per mouse, diluted in saline solution containing 10% ethanol). The […] groups were composed of 10 mice each. The administrations (4 in number) were carried out at the ages of 5, 7, 9 and 13 weeks, and mice were monitored regularly (observations, proteinuria test by Albutix strip, blood tests).

recombinant PDE4B = recombinant PDE4B (Homo sapiens, UniProt Q07343); assay: Inhibition of recombinant PDE4 subtype PDE4B; format: biochemical
Chain of recombinant PDE4B (Q07343 whole entry, species assumed): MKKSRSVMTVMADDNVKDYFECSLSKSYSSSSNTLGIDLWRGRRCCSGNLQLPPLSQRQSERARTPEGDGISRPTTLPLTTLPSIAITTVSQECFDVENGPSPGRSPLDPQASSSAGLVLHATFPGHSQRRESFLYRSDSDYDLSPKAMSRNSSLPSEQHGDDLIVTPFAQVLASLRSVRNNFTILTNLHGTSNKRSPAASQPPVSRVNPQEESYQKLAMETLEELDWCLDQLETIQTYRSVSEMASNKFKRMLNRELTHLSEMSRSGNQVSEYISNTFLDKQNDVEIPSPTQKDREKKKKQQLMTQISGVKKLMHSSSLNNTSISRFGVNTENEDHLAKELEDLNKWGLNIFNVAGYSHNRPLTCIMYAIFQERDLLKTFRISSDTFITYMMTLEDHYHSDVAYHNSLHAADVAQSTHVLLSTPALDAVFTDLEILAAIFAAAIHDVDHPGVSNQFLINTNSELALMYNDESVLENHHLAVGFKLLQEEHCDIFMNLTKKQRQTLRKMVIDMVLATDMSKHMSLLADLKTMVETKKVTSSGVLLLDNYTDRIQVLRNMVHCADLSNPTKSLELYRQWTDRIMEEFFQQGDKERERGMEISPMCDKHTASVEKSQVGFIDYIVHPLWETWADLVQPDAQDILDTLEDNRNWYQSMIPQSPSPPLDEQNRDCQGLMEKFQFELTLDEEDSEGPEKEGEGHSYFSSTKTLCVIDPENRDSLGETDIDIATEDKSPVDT
Experimental: (§2) Cyclic nucleotides phosphodiesterase activity was measured by a radioenzyme method using tritiated cyclic AMP or GMP (1 μM) as substrate (Lugnier C. et al., Biochem. Pharmacol. (1986) 35, 1743-1751; Keravis T et al., Meth. Mol. Biol. (2005) 307, 63-74.). Tritiated adenosine or guanosine monophosphate formed by hydrolysis of the labelled cyclic nucleotide was transformed, in a second incubation with excess nucleotidase, into tritiated adenosine or guanosine. The formed nucleoside was separated from nucleotides by anion exchange resin chromatography. The radioactivity of the nucleoside was measured by liquid scintillation. Enzyme incubations were carried out under conditions in which there was no more than 15% of substrate hydrolysis, and each point was repeated.
(§3) The concentration of the substance causing 50% inhibition of enzymatic activity (IC50) at 1 μM substrate was calculated by non-linear regression (Prism, GraphPad) with the help of the results obtained for compound concentrations that varied as the molecule concentration was increased from 1 nM to 300 μM. Because of solubility problems, the maximum concentration used in this study was limited to 300 μM.

MRL/lpr mice [2] = assay: Anti-double-stranded DNA antibodies in serum of MRL/lpr mice (ELISA); format: in vivo, mouse; conditions: for percentage of mice positive for anti-DNA Abs in serum: positive = OD > 1; for age at which first anti-DNA Ab positive mice appeared: treatment stopped at 13 weeks
Experimental: FIG. 4: Effect of compound NCS 613 and denbufylline on anti-double-stranded DNA Abs. The presence of Abs directed against DNA in murine serums was measured at different ages (in weeks) by ELISA. Results are shown as a percentage of positive mice. A mouse is defined as positive when the optical density (OD) measured by ELISA is greater than 1.
as §1
The presence of Abs directed against DNA in murine serums was measured at different ages by ELISA (Monneaux et al., Eur. J. Immunol. (2003) 33, 287-296; Monneaux et al, Arthritis Rheum (2004) 50, 3232-3238.). Calf thymus double-stranded DNA (Sigma) was adsorbed (100 ng/ml) on 96 well polyvinyl chloride plates (Falcon) and incubated overnight at 37° C. After three washes and a saturation step in PBS-Tween buffer containing bovine serum albumin, serums (diluted to 1/500) were incubated for one hour at 37° C. […] The absorbance was measured at 450 nm by spectrophotometry after the reaction had been stopped.

recombinant PDE4A = recombinant PDE4A (Homo sapiens, UniProt P27815); assay: Inhibition of recombinant PDE4 subtype PDE4A; format: biochemical
Chain of recombinant PDE4A (P27815 whole entry, species assumed): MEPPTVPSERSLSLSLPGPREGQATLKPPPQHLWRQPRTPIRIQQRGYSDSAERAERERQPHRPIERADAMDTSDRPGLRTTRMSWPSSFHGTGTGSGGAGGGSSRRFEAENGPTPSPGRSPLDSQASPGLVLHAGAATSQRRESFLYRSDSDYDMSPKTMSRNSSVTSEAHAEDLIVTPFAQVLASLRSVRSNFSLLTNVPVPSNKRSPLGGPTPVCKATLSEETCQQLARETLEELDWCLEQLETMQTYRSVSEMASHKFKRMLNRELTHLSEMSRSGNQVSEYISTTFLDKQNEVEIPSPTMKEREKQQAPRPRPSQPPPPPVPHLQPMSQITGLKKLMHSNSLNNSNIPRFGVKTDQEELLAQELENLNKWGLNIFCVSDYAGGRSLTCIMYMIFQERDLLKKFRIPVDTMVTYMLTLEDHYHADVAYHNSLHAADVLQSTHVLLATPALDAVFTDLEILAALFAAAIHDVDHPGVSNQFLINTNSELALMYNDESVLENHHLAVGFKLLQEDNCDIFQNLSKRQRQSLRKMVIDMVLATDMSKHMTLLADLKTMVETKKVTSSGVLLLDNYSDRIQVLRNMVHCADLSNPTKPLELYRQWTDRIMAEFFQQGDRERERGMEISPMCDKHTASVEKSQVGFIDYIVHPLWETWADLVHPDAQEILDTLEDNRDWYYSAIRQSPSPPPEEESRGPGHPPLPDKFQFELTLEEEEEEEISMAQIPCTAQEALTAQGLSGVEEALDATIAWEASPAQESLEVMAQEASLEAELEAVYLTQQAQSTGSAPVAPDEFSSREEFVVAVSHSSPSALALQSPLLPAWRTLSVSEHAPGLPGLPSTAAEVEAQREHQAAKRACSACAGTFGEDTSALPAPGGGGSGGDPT
Experimental: as §2, §3

MRL/lpr mice [3] = assay: Survival of MRL/lpr lupus mice; format: in vivo, mouse; conditions: for effect on survival / life expectancy of MRL/lpr mice: 4 i.v. administrations (NCS 613 30 μg, denbufylline 100 μg), followed to 26 weeks
Experimental: FIG. 2: Effect of compound NCS 613 (A) and denbufylline (B) on survival of MRL/lpr lupus mice. Up to the age of 13 weeks, the mice received 4 administrations either of 30 μg of compound NCS 613 or of 100 μg of denbufylline. The results are expressed in percentage survival of mice. Control mice received only PBS (phosphate buffered saline, pH 7.4) without the active ingredient.
as §1

recombinant PDE4C = recombinant PDE4C (Homo sapiens, UniProt Q08493); assay: Inhibition of recombinant PDE4 subtype PDE4C; format: biochemical
Chain of recombinant PDE4C (Q08493 whole entry, species assumed): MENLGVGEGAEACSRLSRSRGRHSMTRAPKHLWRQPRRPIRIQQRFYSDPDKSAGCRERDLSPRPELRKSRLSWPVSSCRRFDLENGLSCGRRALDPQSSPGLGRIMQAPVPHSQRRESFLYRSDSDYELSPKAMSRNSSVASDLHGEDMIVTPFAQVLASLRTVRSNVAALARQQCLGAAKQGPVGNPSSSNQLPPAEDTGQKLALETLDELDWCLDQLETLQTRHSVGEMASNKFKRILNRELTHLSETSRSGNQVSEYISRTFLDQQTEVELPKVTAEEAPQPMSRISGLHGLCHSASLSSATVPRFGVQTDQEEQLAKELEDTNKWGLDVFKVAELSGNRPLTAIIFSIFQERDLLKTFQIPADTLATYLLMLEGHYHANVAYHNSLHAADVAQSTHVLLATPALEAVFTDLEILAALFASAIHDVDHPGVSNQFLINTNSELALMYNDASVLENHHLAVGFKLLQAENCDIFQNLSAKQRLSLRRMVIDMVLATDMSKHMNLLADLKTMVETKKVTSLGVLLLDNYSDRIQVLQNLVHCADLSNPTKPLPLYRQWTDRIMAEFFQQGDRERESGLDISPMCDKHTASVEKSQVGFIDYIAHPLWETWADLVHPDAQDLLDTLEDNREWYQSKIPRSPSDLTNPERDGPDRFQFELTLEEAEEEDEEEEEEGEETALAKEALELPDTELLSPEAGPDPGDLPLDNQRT
Experimental: as §2, §3

[4] = tested on: TNF-α secretion by blood cells of MRL/lpr mice; assay: TNF-α secretion by blood cells from treated mice after ex vivo LPS stimulation; format: in vivo, mouse; conditions: LPS 24 h ex vivo
Experimental: FIG. 3: Effect of compound NCS 613 and denbufylline on the production of TNF-α by blood cells from treated mice after LPS stimulation. TNF-α secretion by blood cells from mice having received saline solution (PBS), compound NCS 613 or denbufylline after ex vivo LPS stimulation for 24 hours was measured in the supernatants by ELISA. The error bars show the standard deviation of duplicates, and the percentage inhibition of TNF-α secretion as a function of the secretion measured in the PBS group is shown. The figures refer to experiments carried out on mice aged 11 (A) and 14 (B) weeks.
as §1
TNF-α secretion was measured after bacterial lipopolysaccharide (LPS) stimulation of mouse blood cells (blood pooled from the 7 mice per group). LPS cell stimulation for 24 hours generates TNF-α secretion which can then be measured in culture supernatants. Cells from the blood of the 3 groups of mice were separated on a Ficoll gradient, and then stimulated by LPS. Supernatants were collected after 24 hours of culture, and the presence of TNF-α in supernatants was measured by a double sandwich ELISA test (BD Biosciences). This experiment was carried out at different ages (11 and 14 weeks, that is 2 weeks after the 3rd administration and 1 week after the 4th administration respectively).

[5] = tested on: TNF-α secretion by PBMCs of a lupus patient; assay: Basal TNF-α secretion by mononuclear blood cells of a lupus patient; format: cell-based; conditions: Homo sapiens, PBMC, no LPS stimulation, one lupus patient, read-out: inhibition of spontaneous (basal) TNF-α secretion
Experimental: FIG. 6: Inhibition of TNF-α secretion by PBMCs of a lupus patient after incubation with NCS 613. The blood cells of a lupus patient (LED2) were incubated in the presence or absence of NCS 613 (10 μM). Supernatants were recovered after 24 hours of culture and the level of TNF-α in the supernatants was measured by ELISA. The results are given as TNF-α concentration after incubation in the presence or absence of NCS 613 and the percentage inhibition of TNF-α secretion after incubation with NCS 613 is shown. Error bars show the standard deviation of duplicates.
(§4) The blood of 5 patients with lupus, rheumatoid arthritis or Sjögren's syndrome was collected directly in heparinated tubes. Mononuclear blood cells were separated by centrifugation (30 min at 600 g) on a Ficoll gradient. Cells were then grown at a concentration of 2×10^5 cells per well in the presence or absence of compound NCS 613 (10 μM) for 45 minutes then stimulated with LPS. Supernatants were recovered after 24 hours of culture and the level of TNF-α in supernatants was measured by double sandwich ELISA (BD Biosciences).
So the ability of compound NCS 613 to inhibit basal TNF-α secretion was studied in blood cells of this patient.

recombinant PDE4D = recombinant PDE4D (Homo sapiens, UniProt Q08499); assay: Inhibition of recombinant PDE4 subtype PDE4D; format: biochemical
Chain of recombinant PDE4D (Q08499 whole entry, species assumed): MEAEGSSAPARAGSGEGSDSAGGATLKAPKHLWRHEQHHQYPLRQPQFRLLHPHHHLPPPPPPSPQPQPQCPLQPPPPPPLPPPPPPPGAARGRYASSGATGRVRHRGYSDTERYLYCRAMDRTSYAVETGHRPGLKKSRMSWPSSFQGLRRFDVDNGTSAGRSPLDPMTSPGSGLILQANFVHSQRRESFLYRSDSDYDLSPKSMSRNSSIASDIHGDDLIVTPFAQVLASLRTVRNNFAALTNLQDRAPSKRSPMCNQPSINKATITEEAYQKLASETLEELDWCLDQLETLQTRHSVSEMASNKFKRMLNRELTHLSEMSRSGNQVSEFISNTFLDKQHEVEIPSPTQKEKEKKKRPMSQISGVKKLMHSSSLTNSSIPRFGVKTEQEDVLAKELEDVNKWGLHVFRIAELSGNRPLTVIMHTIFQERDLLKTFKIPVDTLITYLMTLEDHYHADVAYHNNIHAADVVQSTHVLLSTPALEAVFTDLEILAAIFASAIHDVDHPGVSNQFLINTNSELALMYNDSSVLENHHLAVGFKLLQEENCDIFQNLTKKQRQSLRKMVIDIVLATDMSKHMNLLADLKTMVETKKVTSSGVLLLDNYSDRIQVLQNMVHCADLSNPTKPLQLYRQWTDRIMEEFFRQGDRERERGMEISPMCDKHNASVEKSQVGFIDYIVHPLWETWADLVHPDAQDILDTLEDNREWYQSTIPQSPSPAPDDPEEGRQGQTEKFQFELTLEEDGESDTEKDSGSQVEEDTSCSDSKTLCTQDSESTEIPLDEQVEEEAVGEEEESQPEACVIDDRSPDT
Experimental: as §2, §3

[6] = tested on: TNF-α secretion by PBMCs of patients with auto-immune diseases; assay: TNF-α secretion after LPS stimulation of mononuclear blood cells of autoimmune patients; format: cell-based, human; conditions: for inhibition at 10 µM: Homo sapiens, PBMC
Experimental: FIG. 5. Inhibition of TNF-α secretion by compound NCS 613 after LPS stimulation of the PBMCs of patients with auto-immune diseases. Blood cells from patients with lupus (SLE), rheumatoid arthritis (RA) and Sjögren's syndrome (SS) were incubated for 45 minutes in the presence or absence of NCS 613 (10 μM), then stimulated with LPS. The supernatants were recovered after 24 hours of culture and the level of TNF-α in supernatants was measured by ELISA. The results are given in TNF-α concentration after incubation in the presence or absence of NCS 613 (A) or as inhibition of TNF-α secretion after incubation with NCS 613 (B). Error bars show the standard deviation of duplicates.
as §4

PDE5 = target: T1, PDE5 (Bos taurus, UniProt Q28156); assay: PDE5 inhibition, radioenzyme assay, enzyme isolated from vascular tissue; format: biochemical, bovine; conditions: PDEs isolated from vascular tissue; 1 μM substrate
T1 construct: Effects of compound NCS 613 on PDEs isolated; from tissue; host or cells: bovine aortic media, cytosol, DEAE-Sephacel fraction
Experimental: as §2, with “Enzyme incubations were carried out under conditions in which there was no more than 15% of substrate hydrolysis, and each point was repeated.” left out
(§5) A 3 g piece of bovine aortic media was chopped up with scissors, homogenised using an Ultra-Turrex then using a glass/glass Potter in 7 volumes/weight of buffer A containing a cocktail of protease inhibitors (20 mM Tris-HCl, 0.25 M saccharose, 2 mM magnesium acetate, 1 mM dithiothreitol, 5 mM EGTA, 2000 U/ml aprotinine, 10 mg/l leupeptine and 10 mg/l soy-bean trypsin inhibitor). […] The column was washed until no absorption at 280 nm could be detected, then elution was with a linear NaCl gradient (0-0.5 M) in buffer B. 3 ml fractions were collected and enzymatic activity was measured under various conditions so as to determine the peaks of enzymatic activity contained in the fractions for, in the order of elution, PDE1, PDE5, PDE3 and PDE4. […]

PDE6 = PDE6 (so in the source) inhibition, radioenzyme assay, enzyme isolated from vascular tissue; format: biochemical, bovine; conditions: PDEs isolated from vascular tissue; 1 μM substrate
Experimental: as §2, with “Enzyme incubations were carried out under conditions in which there was no more than 15% of substrate hydrolysis, and each point was repeated.” left out
as §5

PDE1 = PDE1 inhibition, radioenzyme assay, enzyme isolated from vascular tissue; format: biochemical, bovine; conditions: PDEs isolated from vascular tissue; 1 μM substrate
Experimental: as §2, with “Enzyme incubations were carried out under conditions in which there was no more than 15% of substrate hydrolysis, and each point was repeated.” left out
as §5

PDE2 = target: T2, PDE2 (Homo sapiens, UniProt O00408); assay: PDE2 inhibition, radioenzyme assay, enzyme isolated from platelets; format: biochemical; conditions: 1 μM substrate
T2 construct: from tissue; host or cells: human platelets, cytosol, DEAE-Sephacel then MonoQ HPLC
T2 sequence (O00408 whole entry): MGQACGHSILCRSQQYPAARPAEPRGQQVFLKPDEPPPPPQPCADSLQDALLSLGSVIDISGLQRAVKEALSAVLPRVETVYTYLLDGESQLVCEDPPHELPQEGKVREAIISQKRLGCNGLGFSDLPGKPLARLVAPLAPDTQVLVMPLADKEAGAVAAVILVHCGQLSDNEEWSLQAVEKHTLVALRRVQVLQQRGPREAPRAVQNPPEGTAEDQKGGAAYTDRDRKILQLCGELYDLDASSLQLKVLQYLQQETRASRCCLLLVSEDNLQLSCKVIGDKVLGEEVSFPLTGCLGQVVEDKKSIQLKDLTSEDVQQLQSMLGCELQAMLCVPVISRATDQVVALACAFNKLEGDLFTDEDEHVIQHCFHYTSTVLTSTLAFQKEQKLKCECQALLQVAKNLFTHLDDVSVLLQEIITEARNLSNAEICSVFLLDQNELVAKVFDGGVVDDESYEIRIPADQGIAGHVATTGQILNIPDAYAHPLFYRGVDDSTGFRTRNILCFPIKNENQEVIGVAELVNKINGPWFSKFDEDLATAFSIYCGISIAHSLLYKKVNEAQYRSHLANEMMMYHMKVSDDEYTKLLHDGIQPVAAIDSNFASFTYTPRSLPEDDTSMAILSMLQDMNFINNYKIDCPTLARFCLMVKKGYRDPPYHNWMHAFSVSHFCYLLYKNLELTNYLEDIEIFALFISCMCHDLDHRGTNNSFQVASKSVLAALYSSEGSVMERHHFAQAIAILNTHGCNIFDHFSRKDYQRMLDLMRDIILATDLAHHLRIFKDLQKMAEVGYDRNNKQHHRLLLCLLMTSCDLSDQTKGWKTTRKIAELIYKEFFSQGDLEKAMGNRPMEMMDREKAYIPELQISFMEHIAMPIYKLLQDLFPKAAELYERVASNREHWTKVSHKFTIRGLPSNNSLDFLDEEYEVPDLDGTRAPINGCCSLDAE
Experimental: as §2
Washed human platelets from the French Blood Bank (Etablissement Francais du Sang) in Strasburg were left to stand, then the sedimented cells were homogenised in buffer A and centrifuged at 105.000 g for 1 hour. The supernatant was subject to chromatography following the procedure already described for the aortic media (C-2). Then the fractions rich in PDE2 (activity stimulated by 5 μM cGMP) were subject to HPLC chromatography using Pharmacia's MonoQ H/R 5×5. The fraction containing PDE2 was aliquoted and stored at −80° C. (Kameni Tcheudji J. F et al, J. Mol. Biol. (2001) 310, […].). […]

PDE4 = PDE4 inhibition, radioenzyme assay, enzyme isolated from vascular tissue; format: biochemical, bovine; conditions: PDEs isolated from vascular tissue; 1 μM substrate
Experimental: as §2, with “Enzyme incubations were carried out under conditions in which there was no more than 15% of substrate hydrolysis, and each point was repeated.” left out
as §5

[7] = at 20 weeks of age, 4 i.v. administrations at 5, 7, 9, 13 weeks (NCS 613 30 μg, denbufylline 100 μg)
[8] = mice aged 11 weeks (2 weeks after 3rd administration)
[9] = mice aged 14 weeks (1 week after 4th administration)

SMILES | percentage of mice with proteinuria detected (MRL/lpr mice [1]; [7]) | age at which first anti-DNA Ab positive mice appeared (MRL/lpr mice [2]) [weeks] | effect on survival / life expectancy of MRL/lpr mice (MRL/lpr mice [3]) | inhibition percentage of TNF-α secretion vs PBS control group [4, 8] | inhibition percentage of TNF-α secretion vs PBS control group [4, 9] | IC50 (PDE5) [µM] | IC50 (PDE1) [µM] | IC50 (PDE2) [µM] | IC50 (PDE4) [µM] | also measured
CNc1nc(C(F)(F)F)nc2c1ncn2Cc1ccccc1F [NCS 613, 9-(2-fluorobenzyl)-N(6)-methyl-2-trifluoromethyladenine] | 50% | 20 | markedly prolongs the life expectancy | 44% | 54% | 4.7 | 39 | 24 | 0.042 | percentage of mice with proteinuria detected (MRL/lpr mice [1]; at 14 weeks of age, 4 i.v. administrations at 5, 7, 9, 13 weeks (NCS 613 30 μg)): 10%; IC50 (recombinant PDE4B): 0.05 µM; percentage of mice positive for anti-DNA Abs in serum (MRL/lpr mice [2]; at 20 weeks of age): 20%; percentage of mice positive for anti-DNA Abs in serum (MRL/lpr mice [2]; at 26 weeks of age, 13 weeks after end of treatment): 50%; IC50 (recombinant PDE4A): 0.043 µM; mortality (MRL/lpr mice [3]; at 21 weeks of age, 4 i.v. administrations of 30 μg): 30%; IC50 (recombinant PDE4C): 0.0014 µM; inhibition at 10 µM [5]: 67%; IC50 (recombinant PDE4D): 0.014 µM; inhibition percentage of TNF-α secretion by mononuclear blood cells of lupus (SLE) patients, individual patients ([6]; 10 μM, LPS stimulation, 3 lupus patients): 69% and 91% and 98%; inhibition at 10 µM ([6]; LPS stimulation, mean of 3 patients, read-out: mean inhibition percentage of TNF-α secretion by mononuclear blood cells of lupus (SLE) patients): 86%; inhibition at 10 µM ([6]; patients with SLE, RA, Sjögren's syndrome, read-out: inhibition of TNF-α production by LPS-stimulated blood cells of autoimmune patients): 70 to 98%; IC50 (PDE6): > 300 µM
CCCCn1c(=O)c2c(ncn2CC(C)=O)n(CCCC)c1=O [Denbufylline, denbufylline, reference compound] | equivalent to that of control mice | 14 | no acknowledged effect on mouse survival | Equivalent results | even greater than that obtained with compound NCS 613 | 5.4 | 33 | 208 | 0.76 | age at which mortality begins (MRL/lpr mice [3]; 4 i.v. administrations of 100 μg): 15 weeks; IC50 PDE6 (PDE6): n.s
